The NIST ThermoML archive (doi:10.1016/j.fluid.2007.06.007)
Numbers after ± are expanded uncertainties.

Test: excess molar enthalpy (molar enthalpy of mixing); xn = mol fraction of the nth substance listed
Conditions: 101 kPa, Liquid, Calvet calorimetry

CCCCn1cc[n+](C)c1.F[P-](F)(F)(F)(F)F [1-butyl-3-methylimidazolium hexafluorophosphate] + CC(C)O
Conditions	excess molar enthalpy [kcal/mol]
288.15 K, x2 = 0.000943	0.00213 ± 0.000237
288.15 K, x2 = 0.001871	0.00426 ± 0.000287
288.15 K, x2 = 0.002806	0.00637 ± 0.000359
288.15 K, x2 = 0.003745	0.00844 ± 0.00043
288.15 K, x2 = 0.004685	0.0106 ± 0.000502
288.15 K, x2 = 0.00562	0.0126 ± 0.000574
288.15 K, x2 = 0.006556	0.0146 ± 0.000645
288.15 K, x2 = 0.007492	0.0167 ± 0.000741
298.15 K, x2 = 0.000909	0.00209 ± 0.000234
298.15 K, x2 = 0.001826	0.00417 ± 0.000287
298.15 K, x2 = 0.002738	0.0062 ± 0.000359
298.15 K, x2 = 0.003654	0.00821 ± 0.000406
298.15 K, x2 = 0.004571	0.0102 ± 0.000502
298.15 K, x2 = 0.005484	0.0123 ± 0.000574
298.15 K, x2 = 0.006398	0.0143 ± 0.000645
298.15 K, x2 = 0.007311	0.0163 ± 0.000717
308.15 K, x2 = 0.000919	0.00219 ± 0.000237
308.15 K, x2 = 0.001837	0.00421 ± 0.000287
308.15 K, x2 = 0.002753	0.00609 ± 0.000335
308.15 K, x2 = 0.003667	0.00793 ± 0.000406
308.15 K, x2 = 0.004579	0.00975 ± 0.000478
308.15 K, x2 = 0.00549	0.0115 ± 0.000526
308.15 K, x2 = 0.006399	0.0132 ± 0.000598
308.15 K, x2 = 0.007307	0.0149 ± 0.000669
318.15 K, x2 = 0.000994	0.00241 ± 0.000239
318.15 K, x2 = 0.00201	0.00473 ± 0.000311
318.15 K, x2 = 0.003012	0.00688 ± 0.000359
318.15 K, x2 = 0.004011	0.00907 ± 0.000454
318.15 K, x2 = 0.005009	0.0111 ± 0.000526
318.15 K, x2 = 0.006005	0.0133 ± 0.000598
318.15 K, x2 = 0.006999	0.0154 ± 0.000693
318.15 K, x2 = 0.007991	0.0172 ± 0.000765

CCCCn1cc[n+](C)c1.F[P-](F)(F)(F)(F)F [1-butyl-3-methylimidazolium hexafluorophosphate] + CCCCO
Conditions	excess molar enthalpy [kcal/mol]
288.15 K, x2 = 0.000787	0.00199 ± 0.000234
288.15 K, x2 = 0.001572	0.00391 ± 0.000287
288.15 K, x2 = 0.002356	0.00586 ± 0.000335
288.15 K, x2 = 0.003139	0.00774 ± 0.000406
288.15 K, x2 = 0.003921	0.00965 ± 0.000478
288.15 K, x2 = 0.004701	0.0115 ± 0.000526
288.15 K, x2 = 0.00548	0.0134 ± 0.000621
288.15 K, x2 = 0.006258	0.0153 ± 0.000693
298.15 K, x2 = 0.000761	0.00205 ± 0.000234
298.15 K, x2 = 0.00152	0.00402 ± 0.000287
298.15 K, x2 = 0.002279	0.00604 ± 0.000335
298.15 K, x2 = 0.003036	0.00798 ± 0.000406
298.15 K, x2 = 0.003792	0.00989 ± 0.000478
298.15 K, x2 = 0.004547	0.0117 ± 0.00055
298.15 K, x2 = 0.005301	0.0136 ± 0.000621
298.15 K, x2 = 0.006053	0.0154 ± 0.000693
308.15 K, x2 = 0.000768	0.00202 ± 0.000234
308.15 K, x2 = 0.001541	0.00387 ± 0.000287
308.15 K, x2 = 0.002312	0.00562 ± 0.000335
308.15 K, x2 = 0.003086	0.00739 ± 0.000382
308.15 K, x2 = 0.003861	0.0092 ± 0.000454
308.15 K, x2 = 0.004632	0.011 ± 0.000526
308.15 K, x2 = 0.005405	0.0129 ± 0.000598
308.15 K, x2 = 0.006177	0.0147 ± 0.000645
318.15 K, x2 = 0.000821	0.00228 ± 0.000239
318.15 K, x2 = 0.001647	0.00451 ± 0.000287
318.15 K, x2 = 0.00247	0.00669 ± 0.000359
318.15 K, x2 = 0.003297	0.00863 ± 0.00043
318.15 K, x2 = 0.004125	0.0107 ± 0.000502
318.15 K, x2 = 0.004949	0.0128 ± 0.000574
318.15 K, x2 = 0.005774	0.0148 ± 0.000669
318.15 K, x2 = 0.006599	0.0167 ± 0.000741
328.15 K, x2 = 0.000874	0.00273 ± 0.000239
328.15 K, x2 = 0.001747	0.00529 ± 0.000311
328.15 K, x2 = 0.002618	0.00766 ± 0.000406
328.15 K, x2 = 0.003488	0.0101 ± 0.000478
328.15 K, x2 = 0.004357	0.0126 ± 0.000574
328.15 K, x2 = 0.005223	0.015 ± 0.000669
328.15 K, x2 = 0.006089	0.0174 ± 0.000765
328.15 K, x2 = 0.006952	0.0198 ± 0.00086

CCCCn1cc[n+](C)c1.F[P-](F)(F)(F)(F)F [1-butyl-3-methylimidazolium hexafluorophosphate] + CCCO
Conditions	excess molar enthalpy [kcal/mol]
288.15 K, x2 = 0.000953	0.00219 ± 0.000237
288.15 K, x2 = 0.001891	0.00413 ± 0.000287
288.15 K, x2 = 0.002836	0.00617 ± 0.000335
288.15 K, x2 = 0.003785	0.00824 ± 0.00043
288.15 K, x2 = 0.004734	0.0102 ± 0.000502
288.15 K, x2 = 0.005679	0.0123 ± 0.000574
288.15 K, x2 = 0.006625	0.0142 ± 0.000645
288.15 K, x2 = 0.007571	0.0162 ± 0.000717
298.15 K, x2 = 0.000901	0.0021 ± 0.000234
298.15 K, x2 = 0.001808	0.00414 ± 0.000287
298.15 K, x2 = 0.002711	0.00615 ± 0.000335
298.15 K, x2 = 0.003619	0.00808 ± 0.000406
298.15 K, x2 = 0.004527	0.00997 ± 0.000478
298.15 K, x2 = 0.005431	0.0118 ± 0.00055
298.15 K, x2 = 0.006336	0.0136 ± 0.000621
298.15 K, x2 = 0.007241	0.0155 ± 0.000693
308.15 K, x2 = 0.000957	0.00225 ± 0.000237
308.15 K, x2 = 0.001911	0.00429 ± 0.000287
308.15 K, x2 = 0.002864	0.00631 ± 0.000359
308.15 K, x2 = 0.003815	0.00832 ± 0.00043
308.15 K, x2 = 0.004765	0.0103 ± 0.000502
308.15 K, x2 = 0.005712	0.0123 ± 0.000574
308.15 K, x2 = 0.006658	0.0142 ± 0.000645
308.15 K, x2 = 0.007602	0.0162 ± 0.000717
318.15 K, x2 = 0.001129	0.00278 ± 0.000239
318.15 K, x2 = 0.002265	0.00556 ± 0.000335
318.15 K, x2 = 0.003396	0.00829 ± 0.00043
318.15 K, x2 = 0.004532	0.0109 ± 0.000526
318.15 K, x2 = 0.005668	0.0136 ± 0.000621
318.15 K, x2 = 0.006798	0.0163 ± 0.000717
318.15 K, x2 = 0.007929	0.019 ± 0.000837
318.15 K, x2 = 0.009059	0.0215 ± 0.000932
